Laboratory results as given in US12275953B2, “Methods for screening host cells expressing target proteins” (Industrial Technology Research Institute, priority 2020, dated 2025).
Where two headings read alike, the source gives them in different places.

Columns and labels:
[1] = test system: CHOK1 cell lines Fth1_WT and Fth1_KO; assay: Cytotoxicity test of screening medium formulations (AlamarBlue cell viability); conditions: FINO2 and fatty acid PA together, without the addition of iron ions FeSO4
[2] = test system: CHOK1 cell lines Fth1_WT and Fth1_KO
[3] = test system: HEK293T cell line; conditions: 125 μM FeSO4, 72 hours, cells transfected with pCDNA3.1-CMV-cgFth1-p2A-EGFP vs Mock vector
Description: (§1) After 24 hours of adherent culture in F12 medium (Ham's F-12 Nutrient Mix, Gibco) containing 10% FBS, the transfection of vectors (pCDNA3.1-CMV-cgFth1-p2A-EGFP and pCDNA3.1-CMV-p2A-EGFP_Mock, which served as a blank control group) were carried out with Lipofectamine 3000 (Thermo Fisher Scientific Inc.) to promote the overexpression of FTH1 gene. 24 hours after the DNA transfection of the vectors, 125 μM ferrous sulfate (FeSO4) was added to the cell culture broth, and at the same time different doses of ferroptosis inducers FINO2 (0 μM to 20 μM) were added to induce ferroptosis. After 3 days (72 hours) of action, the Celigo Image Cytometer (Nexcelom) was used to analyze the fluorescence cell count and fluorescence quantification, thereby estimating the screening efficiency.

[4] = test system: VERO cell line; conditions: 125 μM FeSO4, 72 hours, cells transfected with pCDNA3.1-CMV-cgFth1-p2A-EGFP vs Mock vector
Description: as §1

[5] = test system: CHOK1 cell lines Fth1-WT and Fth1-KO transfected with pCDNA3.1-CMV-cgFth1-p2A-EGFP; assay: Screening efficiency of transfected cells under iron ion-induced ferroptosis (Celigo Image Cytometer); type: cell-based, Chinese hamster
Description: as §1, with “vector (pCDNA3.1-CMV-cgFth1-p2A-EGFP) was” for “vectors (pCDNA3.1-CMV-cgFth1-p2A-EGFP and pCDNA3.1-CMV-p2A-EGFP_Mock, which served as a blank control group) were”, “the” for “the fluorescence”, “morphology, viability, cell count, fluorescent cell count,” for “count”

[6] = test system: SKBR3 breast cancer cells rich in HER2 antigen; assay: ADCC biological activity reporter gene assay (Jurkat-hFcγRIIIa-NFAT effector cells, luciferase); type: cell-based; conditions: compared with the validated purified Anti-HER2 IgG1 (h4D5) recombinant antibody protein; 24 hours of reaction
Description: Jurkat-hFcγRIIIa-NFAT gene transgenic cells was used as effector cells and SKBR3 breast cancer cells rich in HER2 antigen was used as target cells in ADCC biological activity reporter gene detection system (Promega, #G9790).
First, 100 μl of SKBR3 cells with a cell density of 10^5/ml were added to the 96-well culture plate, placed at 37° C. for overnight culture to allow the cells to adhere and grow, the supernatant was removed the next day, and 25 μl of serially diluted recombinant antibodies prepared in […] medium containing 0.5% fetal bovine serum were added. Next, 25 μl of lurkat-hFcγRIIIa-NFAT effector cells with a cell density of 6×10^6/ml were added.

**Q.** Which cytotoxicity [1] does the source give for `CCCCCCCCCCCCCCCC(=O)O` [PA, Palmitic acid] here?
**A.** did not cause cytotoxicity

**Q.** Which results are given for `CC1(CCO)CC2(CCC(C(C)(C)C)CC2)OO1` (centres unmarked) [FINO2]?
**A.** cytotoxicity [2]: did not cause cytotoxicity; concentration producing significant screening effects [3]: 1.25 µM; concentration producing significant screening effects [4]: 5 µM; relation of increased dose to overall cell viability ([5]; FINO2 0 μM to 20 μM with 125 μM FeSO4, 72 hours): negatively correlated with overall cell viability; cell screening rate ([5]; high dose of ferroptosis inducer (>15 μM), 125 μM FeSO4, 72 hours): 100%

**Q.** Which ADCC effect [6] does the source give for “V2: Anti-HER2 IgG1 (h4D5) recombinant antibody produced by expression vector pBudCE4.1-CMV-GOI1-SV40-cgFth1-EF1α-GOI2” here?
**A.** could obviously induce ADCC

**Q.** “V3: Anti-HER2 IgG1 (h4D5) recombinant antibody from cell line C8, vector pcDNA3.1-CMV-GOI1-furin-p2A-GOI2-IRES-cgFth1, without adding iron ions” was tested. Which ADCC effect [6] did it give?
**A.** could obviously induce ADCC
